Active and inactive are the calls of the source. The calls are words filed in the database; no cut-off is given here.
Legend:
[1] = biological target: T1, Protein cereblon/Cyclin-dependent kinase 4 (Homo sapiens, UniProt P11802+Q96SW2); assay: PROTAC activity at CRBN/CDK4 in human L02 cells assessed as reduction in CDK4 protein level at 1 to 20 uM incubated for 24 hrs in presence of GSH by Western blot analysis; format: cell-based; settings: dose 1-20 µM
[2] = Stability of the compound in PBS buffer assessed as cleavage half life in presence of GSH by LC-MS/MS analysis; format: physicochemical; settings: PBS buffer with GSH
NCI-H3122 [3] = assay: Inhibition of colony formation in human NCI-H3122 cells assessed as reduction in number of colonies at 0.312 uM measured after 10 days by crystal violet staining based microscopic analysis relative to control; format: functional; settings: NCI-H3122, 240 h, time 10 day
NCI-H2228 = assay: Antiproliferative activity against human NCI-H2228 cells assessed as inhibition of cell growth pretreated with GSH followed by compound addition and incubated for 3 to 5 days by MTT assay; format: functional, cell-based
[4] = Toxicity in BALB/c nude mouse xenografted with human NCI-H3122 cells assessed as effect on kidney function at 75 mg/kg, IG administered once daily for 18 days by H and E staining based assay; format: organism-based; settings: in vivo, po, 432 h, time 18 day
[5] = biological target: Cyclin-dependent kinase 6 (Homo sapiens) (UniProt Q00534); assay: Inhibition of CDK6 (unknown origin) at 1 uM by LANCE Ultra TR-FRET assay relative to control
[6] = Toxicity in BALB/c nude mouse xenografted with human NCI-H3122 cells assessed as tolerance at 25 to 75 mg/kg, IG administered once daily for 18 days; format: organism-based; settings: in vivo, po, 432 h, dose 25-75 mg/kg, time 18 day
NCI-H3122 [7] = assay: Induction of apoptosis in human NCI-H3122 cells assessed as total apoptotic cells at 2.5 uM incubated for 48 hrs by Annexin V-FITC/propidium iodide staining based flow cytometric analysis relative to control; format: functional
NCI-H3122 [8] = assay: Antitumor activity against human NCI-H3122 cells xenografted in BALB/c nude mouse assessed as tumor growth inhibition at 50 mg/kg, IG administered once daily for 18 days and measured after 12 hrs of last dose relative to control; format: functional; settings: NCI-H3122, po, time 444 hrs, read-out: TGI
NCI-H3122 [9] = assay: Induction of apoptosis in human NCI-H3122 cells assessed as necrotic cells at 2.5 uM incubated for 48 hrs by Annexin V-FITC/propidium iodide staining based flow cytometric analysis (reference value: 0.57%); format: functional
[10] = biological target: Cyclin-dependent kinase 4 (Homo sapiens) (UniProt P11802); assay: Inhibition of CDK4 (unknown origin) at 1 uM by LANCE Ultra TR-FRET assay relative to control
[11] = biological target: Protein cereblon/ALK tyrosine kinase receptor/Echinoderm microtubule-associated protein-like 4 (Homo sapiens) (UniProt Q9UM73+Q9HC35+Q96SW2); assay: PROTAC activity at CRBN/EML4-ALK in human NCI-H3122 cells assessed as reduction in EML4-ALK fusion protein level at 5 uM incubated for 48 hrs followed by compound washout and measured within 16 hrs by Western blot analysis; format: cell-based
NCI-H3122 [12] = assay: Antiproliferative activity against human NCI-H3122 cells assessed as inhibition of cell growth pretreated with GSH followed by compound addition and incubated for 3 to 5 days by MTT assay; format: functional, cell-based
[13] = biological target: T1, Protein cereblon/Cyclin-dependent kinase 4; assay: PROTAC activity at CRBN/CDK4 in human NCI-H3122 cells assessed as decrease in CDK4 protein level at 0.1 to 20 uM incubated for 24 hrs in presence of GSH by Western blot analysis; format: cell-based; settings: dose 0.1-20 µM
NCI-H3122 [14] = assay: Antitumor activity against human NCI-H3122 cells xenografted in BALB/c nude mouse assessed as tumor growth inhibition at 75 mg/kg, IG administered once daily for 18 days and measured after 12 hrs of last dose relative to control; format: functional; settings: NCI-H3122, po, time 444 hrs, read-out: TGI
NCI-H3122 [15] = assay: Cell cycle arrest in human NCI-H3122 cells assessed as accumulation of cells at G0/G1 phase at 2.5 uM incubated for 24 hrs by propidium iodide staining based flow cytometric analysis (reference value: 48.68%); format: functional
NCI-H1299 = assay: Antiproliferative activity against human NCI-H1299 cells assessed as inhibition of cell growth pretreated with GSH followed by compound addition and incubated for 3 to 5 days by MTT assay; format: functional, cell-based
[16] = biological target: T1, Protein cereblon/Cyclin-dependent kinase 4; assay: PROTAC activity at CRBN/CDK4 in human NCI-H3122 cells assessed as induction of CDK4 degradation at 5 uM pretreated with MG132 for 4 hrs followed compound addition and measured after 24 hrs by Western blot analysis; format: cell-based
NCI-H3122 [17] = assay: Induction of apoptosis in human NCI-H3122 cells assessed as viable cells at 0.625 uM incubated for 48 hrs by Annexin V-FITC/propidium iodide staining based flow cytometric analysis (reference value: 95.66%); format: functional; settings: read-out: Activity
[18] = biological target: T1, Protein cereblon/Cyclin-dependent kinase 4; assay: PROTAC activity at CRBN/CDK4 in human NCI-H3122 cells assessed as reduction in CDK4 protein level at 5 uM incubated for 16 hrs followed by compound washout and measured after 8 hrs by Western blot analysis; format: cell-based
Mus musculus [19] = assay: In vivo PROTAC activity at CDK4 in BALB/c nude mouse xenografted with human NCI-H3122 cells assessed as reduction in CDK4 protein expression level in tumor at 75 mg/kg, IG administered once daily for 18 days and measured after 12 hrs of last dose by immunohistochemical analysis; format: functional, organism-based; settings: time 444.0 hrs
NCI-H3122 [20] = assay: Cell cycle arrest in human NCI-H3122 cells assessed as accumulation of cells at G0/G1 phase at 0.312 uM incubated for 24 hrs by propidium iodide staining based flow cytometric analysis (reference value: 48.68%); format: functional
NCI-H3122 [21] = assay: Cell cycle arrest in human NCI-H3122 cells assessed as accumulation of cells at S phase at 1.25 uM incubated for 24 hrs by propidium iodide staining based flow cytometric analysis (reference value: 29.94%); format: functional
[22] = Stability of the compound in mouse plasma assessed as cleavage to metabolites measured after 4 hrs by LC-MS/MS analysis relative to control; format: ADME, cell-free
[23] = Toxicity in BALB/c nude mouse xenografted with human NCI-H3122 cells assessed as effect on liver function at 75 mg/kg, IG administered once daily for 18 days by H and E staining based assay; format: organism-based; settings: in vivo, po, 432 h, time 18 day
Mus musculus [24] = assay: In vivo PROTAC activity at CRBN/EML4-ALK in BALB/c nude mouse xenografted with human NCI-H3122 cells assessed as reduction in EML4-ALK protein expression in tumor at 75 mg/kg, IG administered once daily for 18 days and measured after 12 hrs of last dose by immunohistochemical analysis; format: functional, organism-based; settings: time 444.0 hrs
[25] = biological target: Protein cereblon/ALK tyrosine kinase receptor (Homo sapiens) (UniProt Q9UM73+Q96SW2); assay: PROTAC activity at CRBN/ALK in human NCI-H2228 cells assessed as reduction in ALK protein level by Western blot analysis; format: cell-based
[26] = biological target: T1, Protein cereblon/Cyclin-dependent kinase 4; assay: PROTAC activity at CRBN/CDK4 in human NCI-H3122 cells assessed as induction of CDK4 protein degradation at 5 uM measured after 16 hrs by Western blot analysis; format: cell-based

T1 sequence (P11802 2-303 limits assumed): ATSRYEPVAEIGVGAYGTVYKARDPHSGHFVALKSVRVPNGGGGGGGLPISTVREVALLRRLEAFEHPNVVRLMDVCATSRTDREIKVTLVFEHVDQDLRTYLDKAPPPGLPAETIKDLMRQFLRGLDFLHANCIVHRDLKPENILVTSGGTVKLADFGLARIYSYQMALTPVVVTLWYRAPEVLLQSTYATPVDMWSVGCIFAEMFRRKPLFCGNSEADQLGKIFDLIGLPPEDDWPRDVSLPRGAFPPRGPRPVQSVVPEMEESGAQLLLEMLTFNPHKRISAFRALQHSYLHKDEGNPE
T1 sequence (Q96SW2 whole entry partner): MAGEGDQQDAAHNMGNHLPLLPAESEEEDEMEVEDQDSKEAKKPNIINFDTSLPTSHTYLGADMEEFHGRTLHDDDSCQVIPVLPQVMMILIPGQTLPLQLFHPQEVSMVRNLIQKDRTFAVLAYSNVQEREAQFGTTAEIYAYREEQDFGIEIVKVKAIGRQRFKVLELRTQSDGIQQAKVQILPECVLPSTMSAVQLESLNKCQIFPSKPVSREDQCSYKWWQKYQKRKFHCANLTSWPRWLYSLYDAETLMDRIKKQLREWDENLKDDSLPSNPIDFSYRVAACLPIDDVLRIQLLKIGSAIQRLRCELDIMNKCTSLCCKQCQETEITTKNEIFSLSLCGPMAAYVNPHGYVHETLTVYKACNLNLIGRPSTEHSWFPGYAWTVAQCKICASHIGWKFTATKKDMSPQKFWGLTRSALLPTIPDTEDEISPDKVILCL
Cyclin-dependent kinase 4 (Homo sapiens), sequence (P11802 whole entry, the tested form may be a part): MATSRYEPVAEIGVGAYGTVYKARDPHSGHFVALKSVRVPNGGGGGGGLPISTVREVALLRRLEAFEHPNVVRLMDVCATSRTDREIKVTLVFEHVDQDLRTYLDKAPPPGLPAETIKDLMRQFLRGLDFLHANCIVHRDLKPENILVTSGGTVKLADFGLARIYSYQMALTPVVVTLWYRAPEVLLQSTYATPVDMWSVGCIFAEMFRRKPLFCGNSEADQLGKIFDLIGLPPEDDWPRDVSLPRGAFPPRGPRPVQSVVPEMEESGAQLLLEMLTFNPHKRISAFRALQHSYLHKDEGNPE
Cyclin-dependent kinase 6 (Homo sapiens), sequence (Q00534 whole entry): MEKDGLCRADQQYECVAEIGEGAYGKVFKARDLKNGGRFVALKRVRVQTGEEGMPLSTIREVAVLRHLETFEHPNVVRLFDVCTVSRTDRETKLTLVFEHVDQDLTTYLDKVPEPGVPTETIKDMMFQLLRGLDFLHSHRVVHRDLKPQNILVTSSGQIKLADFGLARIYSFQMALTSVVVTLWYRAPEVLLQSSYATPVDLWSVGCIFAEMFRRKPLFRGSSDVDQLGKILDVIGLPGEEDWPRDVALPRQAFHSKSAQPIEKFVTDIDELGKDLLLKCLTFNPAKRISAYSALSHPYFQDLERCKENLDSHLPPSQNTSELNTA
Protein cereblon/ALK tyrosine kinase receptor (Homo sapiens), sequence (Q96SW2 whole entry partner): as the sequence (Q96SW2 whole entry partner) above
Protein cereblon/ALK tyrosine kinase receptor (Homo sapiens), sequence (Q9UM73 19-1620 limits assumed): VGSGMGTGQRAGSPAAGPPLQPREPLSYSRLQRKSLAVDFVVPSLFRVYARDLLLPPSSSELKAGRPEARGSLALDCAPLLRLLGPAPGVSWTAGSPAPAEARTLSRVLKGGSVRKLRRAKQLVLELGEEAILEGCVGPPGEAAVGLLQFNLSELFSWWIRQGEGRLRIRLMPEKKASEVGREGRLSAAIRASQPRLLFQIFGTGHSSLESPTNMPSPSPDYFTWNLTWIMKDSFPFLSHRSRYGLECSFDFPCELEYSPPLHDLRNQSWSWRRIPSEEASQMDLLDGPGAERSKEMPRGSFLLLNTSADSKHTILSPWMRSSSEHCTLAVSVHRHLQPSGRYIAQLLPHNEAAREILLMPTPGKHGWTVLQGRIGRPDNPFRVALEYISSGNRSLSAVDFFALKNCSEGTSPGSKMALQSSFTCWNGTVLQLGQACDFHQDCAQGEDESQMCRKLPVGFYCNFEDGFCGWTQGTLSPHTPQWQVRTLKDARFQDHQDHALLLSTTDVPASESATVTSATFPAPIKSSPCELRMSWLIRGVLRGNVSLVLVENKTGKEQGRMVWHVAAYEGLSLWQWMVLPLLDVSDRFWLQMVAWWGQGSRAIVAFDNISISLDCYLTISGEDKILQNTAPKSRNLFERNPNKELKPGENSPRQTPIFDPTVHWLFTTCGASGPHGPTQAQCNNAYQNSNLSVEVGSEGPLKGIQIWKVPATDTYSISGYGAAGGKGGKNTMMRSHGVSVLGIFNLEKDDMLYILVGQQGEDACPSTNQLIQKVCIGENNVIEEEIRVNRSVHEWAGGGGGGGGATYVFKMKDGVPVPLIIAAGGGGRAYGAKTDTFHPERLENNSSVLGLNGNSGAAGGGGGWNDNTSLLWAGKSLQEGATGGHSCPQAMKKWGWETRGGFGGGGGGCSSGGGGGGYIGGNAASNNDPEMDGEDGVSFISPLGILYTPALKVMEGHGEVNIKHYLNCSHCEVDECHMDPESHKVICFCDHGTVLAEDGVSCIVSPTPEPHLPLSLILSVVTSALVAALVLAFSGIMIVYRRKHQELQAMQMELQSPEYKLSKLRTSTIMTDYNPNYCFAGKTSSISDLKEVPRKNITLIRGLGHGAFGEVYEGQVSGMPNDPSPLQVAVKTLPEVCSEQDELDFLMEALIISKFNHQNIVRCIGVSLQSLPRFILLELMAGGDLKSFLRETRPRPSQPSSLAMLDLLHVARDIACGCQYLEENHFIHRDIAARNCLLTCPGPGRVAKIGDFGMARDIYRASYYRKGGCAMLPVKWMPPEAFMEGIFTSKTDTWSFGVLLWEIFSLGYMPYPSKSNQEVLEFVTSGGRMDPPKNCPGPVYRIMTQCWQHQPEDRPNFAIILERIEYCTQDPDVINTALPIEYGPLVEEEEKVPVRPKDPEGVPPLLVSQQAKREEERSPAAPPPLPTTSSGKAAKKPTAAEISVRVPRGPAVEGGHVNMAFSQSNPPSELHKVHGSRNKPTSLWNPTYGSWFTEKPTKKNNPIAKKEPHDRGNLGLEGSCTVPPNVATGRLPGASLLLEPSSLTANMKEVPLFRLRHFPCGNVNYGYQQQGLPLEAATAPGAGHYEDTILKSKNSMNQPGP
Protein cereblon/ALK tyrosine kinase receptor/Echinoderm microtubule-associated protein-like 4 (Homo sapiens), sequence (Q96SW2 whole entry partner, the tested form may be a part): as the sequence (Q96SW2 whole entry partner) above
Protein cereblon/ALK tyrosine kinase receptor/Echinoderm microtubule-associated protein-like 4 (Homo sapiens), sequence (Q9HC35 whole entry partner, the tested form may be a part): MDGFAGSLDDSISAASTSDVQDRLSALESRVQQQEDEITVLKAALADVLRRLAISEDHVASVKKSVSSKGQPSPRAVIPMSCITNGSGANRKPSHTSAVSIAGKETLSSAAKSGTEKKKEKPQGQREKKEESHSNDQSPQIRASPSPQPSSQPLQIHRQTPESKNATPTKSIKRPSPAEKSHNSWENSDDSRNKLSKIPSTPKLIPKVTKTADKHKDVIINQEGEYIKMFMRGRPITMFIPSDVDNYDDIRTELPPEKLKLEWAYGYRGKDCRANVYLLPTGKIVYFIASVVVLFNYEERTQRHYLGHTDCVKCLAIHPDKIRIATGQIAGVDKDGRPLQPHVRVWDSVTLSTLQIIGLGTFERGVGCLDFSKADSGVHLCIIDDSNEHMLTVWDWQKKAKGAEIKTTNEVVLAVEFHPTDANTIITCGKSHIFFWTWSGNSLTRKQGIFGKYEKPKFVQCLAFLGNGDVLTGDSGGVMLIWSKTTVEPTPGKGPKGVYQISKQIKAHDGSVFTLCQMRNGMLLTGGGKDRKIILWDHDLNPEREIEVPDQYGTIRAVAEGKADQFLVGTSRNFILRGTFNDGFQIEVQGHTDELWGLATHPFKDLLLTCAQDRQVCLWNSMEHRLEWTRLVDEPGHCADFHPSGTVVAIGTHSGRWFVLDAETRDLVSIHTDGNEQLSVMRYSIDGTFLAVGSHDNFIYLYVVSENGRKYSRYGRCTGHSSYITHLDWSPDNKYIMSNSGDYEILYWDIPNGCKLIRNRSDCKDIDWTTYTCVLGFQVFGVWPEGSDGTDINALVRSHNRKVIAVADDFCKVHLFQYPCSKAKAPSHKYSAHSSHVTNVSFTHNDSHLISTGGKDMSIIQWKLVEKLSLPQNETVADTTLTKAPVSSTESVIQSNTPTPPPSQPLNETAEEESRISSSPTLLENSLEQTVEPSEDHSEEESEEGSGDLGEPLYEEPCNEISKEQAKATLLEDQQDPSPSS
Protein cereblon/ALK tyrosine kinase receptor/Echinoderm microtubule-associated protein-like 4 (Homo sapiens), sequence (Q9UM73 19-1620 limits assumed): as the sequence (Q9UM73 19-1620 limits assumed) above

Which Activity [1] does the source give for `CC(=O)c1c(C)c2cnc(Nc3ccc(N4CCN(CC(=O)NCCSSCCN(CC(=O)NCCNc5cccc6c5C(=O)N(C5CCC(=O)NC5=O)C6=O)C(=O)CCCCCCC(=O)N5CCC(c6cc(OC(C)C)c(Nc7ncc(Cl)c(Nc8ccccc8S(=O)(=O)C(C)C)n7)cc6C)CC5)CC4)cn3)nc2n(C2CCCC2)c1=O` (stereo not drawn) here?
Its Activity is “inactive”.

What about the half-life [2] of the same compound?
The half-life was over 24 h.

And the inhibition at 0.312 µM (NCI-H3122 [3])?
The inhibition at 0.312 µM was 100%.

What about the IC50 (NCI-H2228) of the same compound?
The IC50 was 1.76 µM.

And the Activity [4]?
The Activity was “Non-Toxic”.

And the inhibition [5]?
The inhibition was 97.8%.

And the Activity [6]?
Its Activity is “Non-Toxic”.

What about the Activity (NCI-H3122 [7]) of the same compound?
Its Activity is 17.2%.

And the inhibition in vivo at 50 mg/kg (NCI-H3122 [8])?
Its inhibition in vivo at 50 mg/kg is 54.8%.

What about the Activity (NCI-H3122 [9]) of the same compound?
The Activity was 1.01%.

And the inhibition [10]?
Its inhibition is 80.2%.

And the Activity [11]?
The Activity was “Active”.

And the IC50 (NCI-H3122 [12])?
Its IC50 is 0.09 µM.

What about the Activity [13] of the same compound?
Its Activity is “inactive”.

And the inhibition in vivo at 75 mg/kg (NCI-H3122 [14])?
The inhibition in vivo at 75 mg/kg was 60.5%.

What about the Activity (NCI-H3122 [15]) of the same compound?
Its Activity is 81.72%.

And the IC50 (NCI-H1299)?
The IC50 was 4.73 µM.

What about the Activity [16] of the same compound?
Its Activity is “inactive”.

What about the viability at 0.625 µM (NCI-H3122 [17]) of the same compound?
Its viability at 0.625 µM is 88.9%.

What about the Activity [18] of the same compound?
Its Activity is “inactive”.

And the Activity (Mus musculus [19])?
The Activity was “Active”.

What about the Activity (NCI-H3122 [20]) of the same compound?
The Activity was 63.17%.

And the Activity (NCI-H3122 [21])?
The Activity was 10.58%.

What about the Drug degradation [22] of the same compound?
Its Drug degradation is 30%.

What about the Activity [23] of the same compound?
Its Activity is “Non-Toxic”.

What about the Activity (Mus musculus [24]) of the same compound?
The Activity was “Active”.

And the Activity [25]?
The Activity was “Active”.

What about the Activity [26] of the same compound?
Its Activity is “Active”.

Source: ChEMBL document CHEMBL5321200, “Discovery of the GSH responsive "Y-PROTACs" targeting ALK and CDK4/6 as a potential treatment for cancer” (Eur J Med Chem, 2023)
